The subject of one series is S. aureus. In kind it is cell-based. The method, then: S. aureus ATCC 29213 was grown from frozen stocks in Luria-Bertani (LB) broth (Scharlab), at 37° C. under aerobic conditions in an orbital shaker (180 rpm). After overnight incubation, 1 mL of bacterial suspensions were incubated with different concentrations of CHX (0.01, 0.005, 0.003, 0.001, 0.0001%) and HCX (0.003, 0.002, 0.001, 0.0002, 0.00002%) for 3 hours at 37° C. under aerobic conditions in an orbital shaker (180 rpm). Bacterial suspension without treatment served as negative control (C−). The optical density (OD) was measured at 600 nm at 0 h and 3 h to determine bacterial proliferation (PowerWave Ht). The bacterial growth rate (μ) was calculated during the exponential growth phase following the equation ln ODt−ln OD0=μ×(t−t0) (n=4). The live/Dead ratio of bacteria was determined using the LIVE/DEAD BacLight bacterial viability kit (Invitrogen), following the manufacturer's instructions. The assays were carried out in triplicate.
The bacteria S. aureus was cultured and treated with different commercial antiseptic gels and HA hydrogel with […] HCX. The gels were tested at a concentration of 5% (v/v), and the experiment was run like in experiment 7, section 7.1.
16.1. […]

The subject of series [1] is human gingival fibroblast cells. Briefly: LDH cytotoxicity in immortalized human gingival fibroblasts. In kind it is cell-based. The procedure:
Cells were seeded in 48-well plates at a density of 2×10^4 cells/well. When the cells reached confluence, they were treated with different concentrations of HCX, and cytotoxicity was determined.
48 hours after seeding the iHGF cells in 48-well plates, cell inflammation was induced by means of adding 1 μg/ml of P. gingivalis lipopolysaccharide (LPS) (InvivoGen, San Diego, CA, USA) and the cells were treated with different concentrations of HCX (0.00002, 0.0002, 0.002%) in a fibroblast medium with 50 μg/ml of ascorbic acid (Sigma-Aldrich, St. Louis, MO, USA) for 48 hours. Images of the cells were taken with a bright field inverted microscope (Nikon Eclipse TS100) before treatment and 24 hours and 48 hours after treatment.
To estimate the cytotoxicity of the different concentrations of HCX, the presence of lactate dehydrogenase (LDH) in the culture media 48 h after pro-inflammatory stimulation with LPS and treatment with HCX was used as the cell death index. Following the manufacturer's instructions (Cytotoxicity Detection kit, Roche Diagnostics, Mannheim, Germany), LDH activity was determined spectrophotometrically after a 30-minute incubation at room temperature (RT) of 50 μl of culture media and 50 μl of the reaction mixture, measuring nicotinamide adenine dinucleotide (NADH) oxidation at 490 nm in the presence of pyruvate. Results were presented in relation to LDH activity of the media of the cells seeded without treatment (negative control, 0% cell death) and in relation to cells treated with 1% Triton X-100 (positive control, 100% death) using the following equation: Cytotoxicity (%)=[(expected value−negative control)/(positive control−negative control)]×100.
Different hydrogel formulations with and without 0.05% of HCX (HA, GelMa, Alginate and HPMC) and commercial gel containing 0.2% chlorhexidine and unmodified HA (Periokin Hyaluronic 1%, Laboratorios Kin, Commercial HA 0.2% CHX) were used for studies with gingival fibroblasts and S. epidermidis. Cells and bacteria without hydrogels served as negative control (C−). Gels at a concentration of 5% (v/v) were used for cell and bacterial studies.
Immortalized human gingival fibroblasts were cultured like in experiment 1 of section 1.2. The cells were treated with different hydrogel formulations with and without 0.05% of HCX (HA, GelMa, Alginate and HPMC) and commercial gel containing 0.2% chlorhexidine and unmodified HA (Periokin Hyaluronic 1%, Laboratorios Kin, commercial HA 0.2% CHX) in a fibroblast medium for 24 hours (n=4). Cell cytotoxicity was measured, like in experiment 1 of section 1.4.
16.1. […]
Immortalized human gingival fibroblasts were cultured like in experiment 1 of section 1.2. […] Cell cytotoxicity was measured, like in experiment 1 of section 1.4.

Regarding `CC(C)=CCc1c(O)cc(O)c2c(=O)c3cc4c(c(O)c3oc12)OC(C)(C)C=C4` [FXA, Formoxanthone A], the “concentration with antibacterial effect without cytotoxicity” value in the series on S. aureus (S. aureus 3 h together with LDH cytotoxicity in gingival fibroblasts 24 h) was 0.001%.

On to `O=c1c2cc(O)c(O)cc2oc2cc(O)cc(O)c12` [NRT, norathryol, reference compound], for which the “biocompatibility for the cells (LDH cytotoxicity)” value in series [1] (all concentrations tested (0.4-77 μM), 24 h) is recorded as “biocompatible”. Also, the antibacterial effect result in the series on S. aureus (all concentrations tested (0.4-77 μM), 3 h) is recorded as “none of them were antibacterial”.

For `COc1c(O)cc2oc3cc(O)c(CC=C(C)C)c(O)c3c(=O)c2c1CC=C(C)C` [aMG, α-Mangostin], in series [1] (0.002% in solution), the toxicity to cells entry is given as “already toxic”.

These data come from patent US20250303006A1, “BIOCOMPATIBLE ANTISEPTIC COMPOSITION CONTAINING 9-HYDROXYCALABAXANTHONE AND/OR RELATED XANTHONES” (UNIVERSITAT DE LES ILLES BALEARS, priority 2022, published 2025).
